Results on 2 compounds are retold here after ChEMBL document CHEMBL1821672, “Indolin-2-one p38α inhibitors II: Lead optimisation” (Bioorg Med Chem Lett, 2011).

Structures are written as SMILES. Values after ≈ are worked out from the molar mass of the structure shown.

For orientation: clearance means the rate of elimination divided by the concentration. A higher clearance goes with efficient removal. Broadly, the IC50 is the concentration that gives 50% inhibition. By Cmax is commonly meant the maximum level reached in the sampled fluid or tissue. As a reminder, the MRT is a mean duration of stay, worked out from the concentration-time curve. By AUC(0-inf) is commonly meant the area under the concentration-time curve extrapolated to infinity. A high value points to high exposure. As usually defined, the bioavailability is the share of a dose that reaches the circulation, judged against a reference dose that is usually intravenous. Low readings indicate little systemic uptake, high ones much systemic uptake. As usually defined, the solubility is how much of the substance goes into solution per volume. Lower therefore signals a poorly soluble substance.

Data set [1] in a line: Clearance in rat at 1 mg/kg, iv. It is filed as ADME, organism-based. Details: dose 1 mg/kg, route intravenous. The following applies: in vivo.
The nature of data set [2]: Volume of distribution at steady state in rat at 1 mg/kg, iv. It is filed as ADME, organism-based. Details: dose 1 mg/kg, route intravenous. The following applies: in vivo, read-out: Vdss.
For data set [3], the system named is Caco-2. As to the kind of experiment: Apparent permeability from basolateral to apical side of human Caco2 cells. It is filed as ADME, cell-based. On the technique in general: Caco-2 monolayers are a common model of the intestinal barrier.
Data set [4] relates to Caco-2. As to the kind of experiment: Apparent permeability from apical to basolateral side of the human Caco2 cells. The format is ADME, cell-based.
Data set [5] addresses Mitogen-activated protein kinase 14 (Homo sapiens, UniProt Q16539). The experiment in a line: Inhibition of p38alpha in human whole blood assessed as reduction in TNF-alpha production by ELISA. (In general: In an ELISA, binding on a coated surface is turned into a signal by an enzyme label.)
Data set [6] is described as follows: Cmax in rat at 1 mg/kg, iv. It is filed as ADME, organism-based. Details: dose 1 mg/kg, route intravenous. To be noted: in vivo.
Data set [7] in a line: Mean residence time in rat at 1 mg/kg, iv. Details: dose 1 mg/kg, route intravenous. The following applies: in vivo. The format is ADME, organism-based.
Data set [8] can be described thus: AUC (0 to infinity) in rat at 1 mg/kg, iv. The format is ADME, organism-based. Details: time infinity, dose 1 mg/kg, route intravenous. The following applies: plasma.
A short description of data set [9]: Metabolic stability in rat hepatic microsomes assessed as compound turnover at 5 uM in presence of NADPH after 30 mins. It is filed as ADME. To be noted: liver microsomes, read-out: Activity.
Data set [10] is described as follows: AUC (0 to infinity) in rat at 10 mg/kg, po. The format is ADME, organism-based. Details: time infinity, dose 10 mg/kg, route oral. To be noted: plasma.
The nature of data set [11]: Terminal half life in rat at 1 mg/kg, iv. It is filed as ADME, organism-based. Details: dose 1 mg/kg, route intravenous. To be noted: in vivo, read-out: beta t1/2 (converted).
A short description of data set [12]: Metabolic stability in human hepatic microsomes assessed as compound turnover at 5 uM in absence of NADPH after 30 mins. The format is ADME. The following applies: liver microsomes, read-out: Activity. (In general: Liver microsomes are vesicles of endoplasmic reticulum, rich in cytochrome P450 enzymes.)
The nature of data set [13]: Oral bioavailability in rat at 10 mg/kg. The format is ADME, organism-based. The following applies: in vivo.
A further data set is filed under the species Rattus norvegicus. The experiment in a line: Hepatic blood flow in rat. It is filed as ADME, organism-based, Liver.
A short description of data set [14]: Cytotoxicity against CHO cells at 200 uM. It is filed as cell-based, Cricetulus griseus. To be noted: chinese hamster, read-out: INH.
Data set [15] is described as follows: Metabolic stability in human hepatic microsomes assessed as compound turnover at 5 uM in presence of NADPH after 30 mins. The format is ADME. The following applies: liver microsomes, read-out: Activity.
Data set [16] in a line: Cmax in rat at 10 mg/kg, po. The format is ADME, organism-based. Details: dose 10 mg/kg, route oral. To be noted: in vivo.
Data set [17] in a line: Metabolic stability in rat hepatic microsomes assessed as compound turnover at 5 uM in absence of NADPH after 30 mins. The format is ADME. To be noted: liver microsomes, read-out: Activity.
The nature of data set [18]: Solubility in aqueous media at pH 7.4. The format is physicochemical.

Sequence of Mitogen-activated protein kinase 14 (Q16539 whole entry): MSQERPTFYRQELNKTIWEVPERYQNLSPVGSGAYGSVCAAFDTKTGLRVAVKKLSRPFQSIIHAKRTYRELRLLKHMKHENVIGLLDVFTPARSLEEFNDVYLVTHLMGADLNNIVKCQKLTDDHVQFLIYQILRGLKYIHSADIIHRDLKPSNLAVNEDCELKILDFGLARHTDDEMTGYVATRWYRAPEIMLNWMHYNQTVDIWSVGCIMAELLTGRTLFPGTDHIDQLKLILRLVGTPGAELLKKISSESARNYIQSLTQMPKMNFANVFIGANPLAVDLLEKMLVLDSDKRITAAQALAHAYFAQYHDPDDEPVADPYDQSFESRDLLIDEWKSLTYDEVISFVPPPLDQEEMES

With `Cc1ccc(C(=O)NC2CC2)cc1-c1ccc2c(c1)NC(=O)C21CCN(C)CC1`, in data set [1], the clearance was 73.3 mL/min/kg. Also, the Vd in [2] amounted to 19.1 L/kg. Further, the Papp result in the data set on Caco-2 [3] and in the data set with Caco-2 [4] was “permeable” in each case. For the same compound, the half-maximal inhibitory concentration (IC50) in data set [5] was determined as 9.6 nM. For the same compound, the figures for the Cmax in data set [6] and in data set [16] were 133 ng/mL and 134 ng/mL, respectively. For the same compound, the MRT in data set [7] stood at 4.3 h. Also, the figures for the AUC(0-inf) in [8] and in data set [10] were 226 ng·h/mL and 786 ng·h/mL, respectively. In addition, the metabolised at 0.5 h, 5 µM came to 13% in data set [9], 17% in data set [12] and 15% in data set [15]. Also, the half-life in [11] was 5.1 h. The bioavailability in data set [13] worked out at 35%. The same compound had a QH in the data set filed under Rattus norvegicus above 85%. In addition, the cytotoxicity at 200 µM in data set [14] is 40%.

Consider `Cc1ccc(C(=O)NC2CC2)cc1-c1ccc2c(c1)NC(=O)C21CCCC1`, for which the Papp result in the data set on Caco-2 [3] and in the data set on Caco-2 [4] was “permeable” each time. Moreover, the MRT in [7] came to 2.1 h. The metabolised at 0.5 h, 5 µM is below 5% in data set [17] and 44% in data set [9]. Moreover, in data set [10], the AUC(0-inf) was found to be 2640 ng·h/mL. The compound further came in with a solubility in [18] of 3 µg/mL (≈ 8.32 µM).
